Experimental data taken from patent publication US8822409B2, “Compositions and uses thereof for the treatment of acute respiratory distress syndrome (ARDS) and clinical disorders associated with therewith” (Phylogica Limited, priority 2007, dated 2014).
Entries after “also recorded” stand apart in the source; their conditions may differ. Where no end group is shown, it is not given here. [ ]: non-standard residue; d: D form.

Columns and labels:
[1] = system: C57/BL6 mice given intranasal LPS (animal model of ARDS and sepsis); assay: Neutrophil infiltration in BAL after intranasal peptide, LPS-induced mouse model of ARDS and sepsis (FIG. 1); assay type: in vivo; conditions: repeated dose co-administered with LPS (10 μg/mouse), BAL 6 hours later, n=5
Experimental: FIG. 1 is a graphical representation showing the percentage of neutrophils (y-axis) in bronchoalveolar lavage (BAL) in 8-week to 12-week old C57/BL6 mice receiving various treatments indicated by numbers on the x-axis as follows:
Columns 1-4 (open bars): Animals (n=5 per group) received either no LPS (column 1) or a dose of LPS intranasally (10 μg/mouse) and BAL was performed 1 hour (column 2), 4 hours (column 3) or 6 hours (column 4) later. No peptide was administered to these animals.
Columns 5-7 (filled bars): Animals (n=5 per group) received an intranasal dose of 10 mg/kg body weight of retroinverted peptide analog D-PYC36-TAT (SEQ ID NO: 106; column 5) or D-PYC35-TAT (SEQ ID NO: 104; column 6), or 5 mg/kg body weight of retroinverted peptide analog D-PYC38-TAT (SEQ ID NO: 108; column 7), by a repeated dose of the same peptide analog for each group co-administered intranasally with LPS (10 μg/mouse) and BAL was performed 6 hours later.
Column 8 (hatched bars): Animals (n=5) received an intranasal dose of 10 mg/kg body weight of a scrambled version of SEQ ID NO: 106 designated D-PYC36scrambled-TAT followed 1 hour later by a repeated dose of the same peptide analog co-administered intranasally with LPS (10 μg/mouse) and BAL was performed 6 hours later.
BAL was performed on the animals using 1 ml GKN/0.2% BSA. Cell counts were obtained to determine total cell numbers and differential counts were obtained on cytocentrifuge slide preparations to elucidate the percentage neutrophils in BAL.
8-12 week old C57/B16 mice were purchased from the Animal Resource Center, Murdoch University, Western Australia and used for all experiments. All experiments were approved by the necessary institutional animal ethics committees and were performed in accordance with the National Health and Medical Research Council (NHMRC) Australian Code of Practice for the Care and Use of Animals for Scientific Purposes. […]

[2] = system: female C57/BL6 mice given intranasal LPS (animal model of ARDS and sepsis); assay: Neutrophil infiltration in BAL after intravenous peptide injection, LPS-induced mouse model of ARDS and sepsis (FIG. 2); assay type: in vivo; conditions: intravenous 10 mg/kg 20 min before intranasal LPS (40 μg/mouse), repeat injections 2 and 4 hours post-LPS, BAL 6 hours after LPS
Experimental: FIG. 2 is a graphical representation showing the percentage of neutrophils (y-axis) in bronchoalveolar lavage (BAL) in 8-week to 10-week old female C57/BL6 mice receiving various treatments indicated by numbers on the x-axis as follows:
Column 1 (naïve): Animals received no LPS and BAL was performed 6 hours later. No peptide was administered to these animals.
Column 2 (nil): Animals received an intranasal dose of E. coli LP (40 μg/mouse) and BAL was performed 6 hours later.
Column 3 (D36-TAT x1): Animals received a single intravenous injection of 10 mg/kg body weight of retroinverted peptide analog D-PYC36-TAT (SEQ ID NO: 106) followed 20 min later by an intranasal dose of LPS (40 μg/mouse). BAL was performed 6 hours after LPS administration.
Column 4 (D36-TATscr x1): Animals received a single intravenous injection of 10 mg/kg body weight of a peptide having a scrambled sequence relative to the retroinverted peptide analog D-PYC36-TAT (SEQ ID NO: 106) followed 20 min later by an intranasal dose of LPS (40 μg/mouse). BAL was performed 6 hours after LPS administration. […]

[3] = intranasal 10 mg/kg body weight 1 hour before LPS

Substance | percentage of neutrophils in bronchoalveolar lavage (BAL) [1, 3] | percentage of neutrophils in bronchoalveolar lavage (BAL) [2] | percentage of neutrophils in bronchoalveolar lavage (BAL) ([1]; intranasal 5 mg/kg body weight 1 hour before LPS)
SEQ ID NO: 104: retroinverted peptide analog of SEQ ID NO: 57 fused to the TAT 10-mer with a linking glycine; AP-1 signaling inhibitor ([dR][dE][dR][dK][dS][dS][dS][dE][dI]GG[dS][dR][dI][dS][dQ][dY][dA]G[dR][dR][dR][dQ][dR][dR][dK][dK][dR]G; also: retro-inverso) | significantly reduced; also recorded: significantly-reduced | – | –
SEQ ID NO: 106: retroinverted peptide analog of SEQ ID NO: 59 fused to the TAT 10-mer with a linking glycine; AP-1 signaling inhibitor ([dP][dK][dI][dS][dQ][dY]G[dQ][dR][dR][dR]G[dQ][dL]GG[dR][dR][dR][dQ][dR][dR][dK][dK][dR]G) | significantly reduced; also recorded: significantly-reduced | significantly reduced; also recorded: significantly-reduced | –
SEQ ID NO: 108: retroinverted peptide analog of SEQ ID NO: 61 fused to the TAT 10-mer with a linking glycine; AP-1 signaling inhibitor ([dR][dH][dA][dP][dL][dA][dR]G[dS][dW][dR]G[dQ][dP][dQ][dQ]G[dP][dQ][dR][dR]G[dQ][dL]GG[dR][dR][dR][dQ][dR][dR][dK][dK][dR]G) | – | – | significantly reduced; also recorded: significantly-reduced
